Data from patent US6683184B2, “Piperazine derivatives and process for the preparation thereof” (Samjin Pharmaceutical Co., Ltd., priority 1999, dated 2004).
Values after ≈ are worked out from the molar mass of the structure shown.

Columns and labels:
Format in all cases: cell-based
XF 498 (human CNS) = assay: In vitro antitumor effect against human tumor cell lines, SRB assay, XF 498; conditions: 48 hours; for ED50 XF-498: XF-498 cells; for IC50: Homo sapiens, XF498, XF-498 cells, read-out: ED50 XF-498
Method: (§1) In vitro antitumor effect against human tumor cell lines.
(§2) a. Human solid tumor cell lines, A549(non-small lung cell), SKMEL-2(melanoma), HCT-15(colon), SKOV-3(ovarian), XF-498(CNS) were cultured at 37° C. in 5% CO2 incubators using RPMI 1640 media containing 10% FBS, while they were transfer-cultured successively once or twice per week. Cell cultures were dissolved in a solution of 0.25% trypsin and 3 mM CDTA PBS(−) and then cells were separated from media which the cells were sticked on.
(§3) b. 5×10^3˜2×10^4 cells were added into each well of 96-well plate and cultured in 5% CO2 incubator, at 37° C., for 24 hours.
(§4) c. Each sample drug was dissolved in a little DMSO and diluted with the used medium to a prescribed concentration for experiments, wherein the final concentration of DMSO was controlled below 0.5%.
(§5) d. Medium of each well cultured for 24 hours as above b. was removed by aspiration. Each 200 μl of drug samples prepared in c. was added into each well and the wells were cultured for 48 hours. Tz(time zero) plates were collected at the point of time drugs were added.
(§6) e. According to the SRB assay method, cell fixing with TCA, staining with 0.4% SRB solution, washing with 1% acetic acid and elution of dye with 10 mM Tris solution were carried out on Tz plates and culture-ended plates, whereby OD values were measured at 520 nm.
(§7) a. Time zero(Tz) value was determined with measuring the SRB protein amounts of the Tz plates collected at the point of time drugs were added.
(§8) b. Control value(C) was determined with the OD values of wells untreated with a drug.
(§9) c. Drug-treated test value(T) was determined with the OD values of drug-treated wells.
(§10) d. Effects of drugs were estimated with growth stimulation, net growth inhibition, net killing etc., being calculated from Tz, C and T.
(§11) e. If T≧Tz, cellular response function was calculated by 100×(T−Tz)/(C−Tz), and if T<Tz, by 100×(T−Tz)/Tz.

SKOV-3 (human ovarian) = assay: In vitro antitumor effect against human tumor cell lines, SRB assay, SKOV-3; conditions: SK-OV-3 cells, 48 hours; for IC50: Homo sapiens, read-out: ED50 SK-OV-3
Method: as §1, §2, §3, §4, §5, §6, §7, §8, §9, §10, §11

SKMEL-2 (human melanoma) = assay: In vitro antitumor effect against human tumor cell lines, SRB assay, SKMEL-2; conditions: SK-MEL-2 cells, 48 hours; for IC50: Homo sapiens, read-out: ED50 SK-MEL-2
Method: as §1, §2, §3, §4, §5, §6, §7, §8, §9, §10, §11

[1] = test system: A549 (human non-small lung cell); assay: In vitro antitumor effect against human tumor cell lines, SRB assay, A549; conditions: A549 cells, 48 hours; for IC50: Homo sapiens, read-out: ED50 A 549
Method: as §1, §2, §3, §4, §5, §6, §7, §8, §9, §10, §11

HCT-15 (human colon) = assay: In vitro antitumor effect against human tumor cell lines, SRB assay, HCT-15; conditions: HCT 15 cells, 48 hours; for IC50: Homo sapiens, read-out: ED50 HCT 15
Method: as §1, §2, §3, §4, §5, §6, §7, §8, §9, §10, §11

| SMILES | ED50 XF-498 (XF 498 (human CNS)) [ng/mL] | ED50 SK-OV-3 (SKOV-3 (human ovarian)) [ng/mL] | ED50 SK-MEL-2 (SKMEL-2 (human melanoma)) [ng/mL] | ED50 A 549 [1] [ng/mL] | ED50 HCT 15 (HCT-15 (human colon)) [ng/mL] | IC50 (XF 498 (human CNS)) [ng/mL] | IC50 (SKOV-3 (human ovarian)) [ng/mL] | IC50 (SKMEL-2 (human melanoma)) [ng/mL] | IC50 [1] [ng/mL] | IC50 (HCT-15 (human colon)) [ng/mL] |
| --- | --- | --- | --- | --- | --- | --- | --- | --- | --- | --- |
| COc1nc2ccccc2nc1NC(=O)N1CCN(c2cc(F)cc(F)c2)CC1 [Example 46, 1-[(2-Methoxyquinoxalin-3-yl)aminocarbonyl]-4-(3,5-difluo-rophenyl)piperazine] | 1 (≈ 0.0025 µM) | 7 (≈ 0.0175 µM) | 3 (≈ 0.00751 µM) | 2 (≈ 0.00501 µM) | 2 (≈ 0.00501 µM) |  |  |  |  |  |
| COC(=O)c1cc(N=C(NO)N2CCN(c3cc(F)cc(F)c3)CC2)c(OC)nc1C [Example 120, N-Hydroxy-N′-(5-methoxycarbonyl-2-methoxy-6-methylpyridin-3-yl)-[4-(3,5-difluorophenyl)piperazin-1-yl]carboxyimidamide] | 820 (≈ 1.88 µM) | 730 (≈ 1.68 µM) | 280 (≈ 0.643 µM) | 640 (≈ 1.47 µM) | 300 (≈ 0.689 µM) |  |  |  |  |  |
| COc1cc2ccccc2cc1NC(=O)N1CCN(c2cc(C)cc(C)c2)CC1 [Example 86, 1-[(2-Methoxynaphth-3-yl)aminocarbonyl]-4-(3,5-dimethylphenyl)piperazine] |  |  |  |  |  | 40 (≈ 0.103 µM) | 80 (≈ 0.205 µM) | 30 (≈ 0.077 µM) | 40 (≈ 0.103 µM) | 60 (≈ 0.154 µM) |
| COc1cc(OC)cc(N2CCN(C(=Nc3cc(C)c(C)nc3OC)NO)CC2)c1 [Example 101, N-Hydroxy-N′-(5,6-dimethyl-2-methoxypyridin-3-yl)-[4-(3,5-dimethoxyphenyl)piperazin-1-yl]carboxyimidamide] | 0.2 (≈ 0.000481 µM) | 0.3 (≈ 0.000722 µM) | 0.3 (≈ 0.000722 µM) | 0.3 (≈ 0.000722 µM) | 0.1 (≈ 0.000241 µM) |  |  |  |  |  |
| N.N.[Cl][Pt][Cl] [Cisplatin, reference compound] | 770 | 1320 | 870 | 910 | 3170 |  |  |  |  |  |
| COc1cc2ccccc2cc1NC(=O)N1CCN(c2cc(Cl)cc(Cl)c2)CC1 [Example 89, 1-[(2-Methoxynaphth-3-yl)aminocarbonyl]-4-(3,5-dichlorophenyl)piperazine] |  |  |  |  |  | 40 (≈ 0.093 µM) | 200 (≈ 0.465 µM) | 30 (≈ 0.0697 µM) | 40 (≈ 0.093 µM) | 50 (≈ 0.116 µM) |
| COc1cc(OC)cc(N2CCN(C(=Nc3cc(C(C)=O)c(C)nc3OC)NO)CC2)c1 [Example 133, N-Hydroxy-N′-(5-acetyl-2-methoxy-6-methylpyridin-3-yl)-[4-(3,5-dimethoxyphenyl)piperazin-1-yl]carboxyimidamide] | 0.1 (≈ 0.000225 µM) | 0.1 (≈ 0.000225 µM) | 0.1 (≈ 0.000225 µM) | 0.1 (≈ 0.000225 µM) | 0.1 (≈ 0.000225 µM) |  |  |  |  |  |
| COc1cc2ccccc2cc1N(C)C(=O)N1CCN(c2cc(C)cc(C)c2)CC1 [Example 90, 1-[(2-Methoxynaphth-3-yl)-N-methylaminocarbonyl]-4-(3,5-dimethylphenyl)piperazine] |  |  |  |  |  | 680 (≈ 1.69 µM) | 350 (≈ 0.867 µM) | 900 (≈ 2.23 µM) | 380 (≈ 0.942 µM) | 200 (≈ 0.496 µM) |
| COc1nc(C)c(CO)cc1N=C(NO)N1CCN(c2cc(F)cc(F)c2)CC1 [Example 127, N-Hydroxy-N′-(5-hydroxymethyl-2-methoxy-6-methylpyridin-3-yl)-[4-(3,5-difluorophenyl)piperazin-1-yl]carboxyimidamide] | 6 (≈ 0.0147 µM) | 11 (≈ 0.027 µM) | 5 (≈ 0.0123 µM) | 13 (≈ 0.0319 µM) | 2 (≈ 0.00491 µM) |  |  |  |  |  |
| COc1nc2ccccc2nc1NC(=O)N1CCN(c2ccccc2C(C)C)CC1 [Example 40, 1-[(2-Methoxyquinoxalin-3-yl)aminocarbonyl]-4-(2-isoprop-ylphenyl)piperazine] |  |  |  |  |  | 810 (≈ 2 µM) | 1010 (≈ 2.49 µM) | 370 (≈ 0.912 µM) | 410 (≈ 1.01 µM) | 390 (≈ 0.962 µM) |
| COc1nc(C)c(C)cc1N=C(NO)N1CCN(c2cc(CO)cc(CO)c2)CC1 [Example 107, N-Hydroxy-N′-(5,6-dimethyl-2-methoxypyridin-3-yl)-{4-[3,5-bis-(hydroxymethyl)phenyl]piperazin-1-yl}carboxyimidamide] | 8 (≈ 0.0193 µM) | 13 (≈ 0.0313 µM) | 5 (≈ 0.012 µM) | 32 (≈ 0.077 µM) | 9 (≈ 0.0217 µM) |  |  |  |  |  |
| COc1cc(C)c(C)cc1N=C(NO)N1CCN(c2cc(C)cc(C)c2)CC1 [Example 180, N-Hydroxy-N′-(4,5-dimethyl-2-methoxyphenyl-1-yl)-[4-(3,5-dimethylphenyl)piperazin-1-yl]carboxyimidamide] | 240 (≈ 0.627 µM) | 160 (≈ 0.418 µM) | 310 (≈ 0.81 µM) | 280 (≈ 0.732 µM) | 160 (≈ 0.418 µM) |  |  |  |  |  |
| COc1nc2ccccc2nc1NC(=O)N1CCN(c2ccccc2SC)CC1 [Example 51, 1-[(2-Methoxyquinoxalin-3-yl)aminocarbonyl]-4-(2-methylt-hiophenyl)piperazine] | 630 (≈ 1.54 µM) | 680 (≈ 1.66 µM) | 280 (≈ 0.684 µM) | 370 (≈ 0.904 µM) | 180 (≈ 0.44 µM) |  |  |  |  |  |
| COc1cc(C)c(C)cc1N=C(NO)N1CCN(c2cc(F)cc(F)c2)CC1 [Example 182, N-Hydroxy-N′-(4,5-dimethyl-2-methoxyphenyl-1-yl)-[4-(3,5-difluorophenyl)piperazin-1-yl]carboxyimidamide] | 103 (≈ 0.264 µM) | 81 (≈ 0.207 µM) | 33 (≈ 0.0845 µM) | 292 (≈ 0.748 µM) | 6 (≈ 0.0154 µM) |  |  |  |  |  |
| COc1cc(OC)cc(N2CCN(C(=Nc3cc4ccccc4nc3OC)NO)CC2)c1 [Example 172, N-Hydroxy-N′-(2-methoxyquinolin-3-yl)-[4-(3,5-dimethoxyphenyl)-piperazin-1-yl]carboxyimidamide] | 30 (≈ 0.0686 µM) | 80 (≈ 0.183 µM) | 20 (≈ 0.0457 µM) | 70 (≈ 0.16 µM) | 20 (≈ 0.0457 µM) |  |  |  |  |  |
| COc1cc(OC)cc(N2CCN(C(=O)N(C)c3nc4ccccc4nc3OC)CC2)c1 [Example 53, 1-[(2-Methoxyquinoxalin-3-yl) N-methylaminocarbonyl]-4-(3,5-dimethoxyphenyl)piperazine] |  |  |  |  |  | 270 (≈ 0.617 µM) | 210 (≈ 0.48 µM) | 930 (≈ 2.13 µM) | 170 (≈ 0.389 µM) | 50 (≈ 0.114 µM) |
